Molecules are shown by their SMILES. Like-named read-outs stand apart in the source and are kept apart here.

The values below come from US6448228B1, “Dipeptide compounds having a high fungicidal activity and their agronomic use” (Isagro Ricerca S.r.l., priority 1998, dated 2002).

This experiment relates to Plasmopara viticola. Kind of experiment: Fungicidal effectiveness against Peronospora (Plasmopara viticola) in preventive leaf application on vines. Format: in vivo. The following applies: 168 h, read-out: Effectiveness expressed as leaf diffusion control % of the disease with respect to a non-treated reference. Here is the method: Determination of the Fungicidal Effectiveness Against Peronospora (Plasmapara viticola) of Compounds Having Formula (I) and (II) in Preventive Leaf Application
Cultivar Dolcetto vine leaves, grown in vases in a conditioned environment (20±1° C.), 70% relative humidity), are treated by spraying both sides of the leaves with compounds 1-7 dispersed in a hydroacetone solution at 20% by volume of acetone.
After remaining 24 hours in a conditioned environment, the plants are sprayed on both sides of the leaf with an aqueous suspension of conidia of Plasmopara viticola (200,000 conidia per cm^3).
The plants are kept in a humidity saturated environment, at 21° C., for the incubation period of the fungus and, at the end of this period (7 days), the fungicidal activity is evaluated according to an evaluation percentage scale from 100 (healthy plant) to 0 (completely infected plant).

The mark [1] stands for this setting: Dose 0.45 g/hl, preventive leaf application on Dolcetto vines, inoculation 24 hours after treatment, evaluation after 7 days, scale 100 (healthy plant) to 0 (completely infected plant).
[2] abbreviates: Dose 1.8 g/hl, preventive leaf application on Dolcetto vines, inoculation 24 hours after treatment, evaluation after 7 days, scale 100 (healthy plant) to 0 (completely infected plant).
[3] abbreviates: Dose 7.5 g/hl, preventive leaf application on Dolcetto vines, inoculation 24 hours after treatment, evaluation after 7 days, scale 100 (healthy plant) to 0 (completely infected plant).
Setting [4] is: Dose 30 g/hl, preventive leaf application on Dolcetto vines, inoculation 24 hours after treatment, evaluation after 7 days, scale 100 (healthy plant) to 0 (completely infected plant).

For the compound `COC(=O)CC(NC(=O)[C@@H](NC(=O)OC(C)C)C(C)C)c1ccc(OC)cc1` (stereo partly shown) [Compound 6, methyl RS-[3-(N-isopropoxycarbonyl-S-valinyl)amino]-3-(4-methoxyphenyl)propanoate], the pest or weed control at 0.45 g/hl under setting [1] stood at 65%. Moreover, under setting [2], the pest or weed control at 1.8 g/hl was found to be 92%. Moreover, under setting [3], the pest or weed control at 7.5 g/hl was 100%. In addition, the pest or weed control at 30 g/hl under setting [4] is 100%.
For the compound `COC(=O)CC(NC(=O)[C@@H](NC(=O)OC(C)C)C(C)C)c1ccc(Cl)cc1` (mixture of isomers) [Compound 1, methyl (±)RS-[3-(N-isopropoxy-carbonyl-S-valinyl)amino]-3-(4-chlorophenyl)propanoate], under setting [1], the pest or weed control at 0.45 g/hl worked out at 80%. Also, the pest or weed control at 1.8 g/hl under setting [2] was determined as 100%. For the same compound, under setting [3], the pest or weed control at 7.5 g/hl was 100%. The pest or weed control at 30 g/hl under setting [4] stood at 100%.
As for `COC(=O)C(C)(C)C(NC(=O)[C@@H](NC(=O)OC(C)C)C(C)C)c1ccccc1` (stereo partly shown) [Reference 4, reference compound], the pest or weed control at 0.45 g/hl under setting [1] stood at 15%. For the same compound, the pest or weed control at 1.8 g/hl under setting [2] is 55%. Also, the pest or weed control at 7.5 g/hl under setting [3] was 75%. In addition, under setting [4], the pest or weed control at 30 g/hl worked out at 90%.
As to `COC(=O)CC(NC(=O)[C@@H](NC(=O)OC(C)C)C(C)C)c1nc2ccccc2s1` (mixture of isomers) [Compound 8, methyl (±)RS-[3-(N-isopropoxycarbonyl-S-valinyl)amino]-3-(benzothiazol-2-yl)propanoate], the pest or weed control at 0.45 g/hl under setting [1] amounted to 70%. For the same compound, the pest or weed control at 1.8 g/hl under setting [2] was determined as 92%. Besides, under setting [3], the pest or weed control at 7.5 g/hl is 100%. The pest or weed control at 30 g/hl under setting [4] was found to be 100%.
As for `COC(=O)CC(NC(=O)[C@@H](NC(=O)OC(C)C)C(C)C)c1ccc(C)cc1` (stereo partly shown) [Compound 4, methyl RS-[3-(N-isopropoxycarbonyl-S-valinyl)amino]-3-(4-methylphenyl)propanoate], the pest or weed control at 0.45 g/hl under setting [1] amounted to 75%. The pest or weed control at 1.8 g/hl under setting [2] is 100%. Moreover, under setting [3], the pest or weed control at 7.5 g/hl worked out at 100%. Under setting [4], the pest or weed control at 30 g/hl amounted to 100%.
In the case of `COC(=O)CC(NC(=O)[C@@H](NC(=O)OC(C)(C)C)C(C)C)c1ccc(Cl)cc1` (stereo partly shown) [Reference 2, reference compound], the pest or weed control at 0.45 g/hl under setting [1] came out at 30%. Besides, under setting [2], the pest or weed control at 1.8 g/hl came out at 65%. Besides, under setting [3], the pest or weed control at 7.5 g/hl was 88%. The pest or weed control at 30 g/hl under setting [4] came out at 100%.
Turning to `COC(=O)CC(NC(=O)[C@@H](NC(=O)OC(C)C)C(C)C)c1nc2cc(Cl)ccc2s1` (mixture of isomers) [Compound 9, methyl (±)RS-[3-(N-isopropoxycarbonyl-S-valinyl)amino]-3-(5-chlorobenzothiazol-2-yl)propanoate], the pest or weed control at 0.45 g/hl under setting [1] worked out at 90%. In addition, the pest or weed control at 1.8 g/hl under setting [2] amounted to 100%. For the same compound, the pest or weed control at 7.5 g/hl under setting [3] came out at 100%. The pest or weed control at 30 g/hl under setting [4] was 100%.
With `COC(=O)C[C@H](NC(=O)[C@@H](NC(=O)OC(C)C)C(C)C)c1ccc(Cl)cc1` [Compound 3, methyl (−)S-[3-(N-isopropoxycarbonyl-S-valinyl)amino]-3-(4-chlorophenyl)propanoate], the pest or weed control at 0.45 g/hl under setting [1] was 65%. Moreover, the pest or weed control at 1.8 g/hl under setting [2] was 85%. The pest or weed control at 7.5 g/hl under setting [3] stood at 100%. Moreover, the pest or weed control at 30 g/hl under setting [4] was found to be 100%.
As to `CC(C)OC(=O)CC(NC(=O)[C@@H](NC(=O)OC(C)C)C(C)C)c1ccccc1` (stereo partly shown) [Reference 5, reference compound], the pest or weed control at 0.45 g/hl under setting [1] amounted to 0%. Besides, the pest or weed control at 1.8 g/hl under setting [2] was 15%. In addition, under setting [3], the pest or weed control at 7.5 g/hl is 75%. Also, under setting [4], the pest or weed control at 30 g/hl turned out to be 96%.
Regarding `COC(=O)C[C@@H](NC(=O)[C@@H](NC(=O)OC(C)C)C(C)C)c1ccc(Cl)cc1` (racemic) [Compound 2, methyl (±)R-[3-(N-isopropoxycarbonyl-S-valinyl)amino]-3-(4-chlorophenyl)propanoate], the pest or weed control at 0.45 g/hl under setting [1] was determined as 100%. Besides, under setting [2], the pest or weed control at 1.8 g/hl was determined as 100%. In addition, under setting [3], the pest or weed control at 7.5 g/hl came to 100%. Moreover, the pest or weed control at 30 g/hl under setting [4] was determined as 100%.
With `COC(=O)CC(NC(=O)[C@@H](NC(=O)OC(C)(C)C)C(C)C)c1ccccc1` (stereo partly shown) [Reference 1, reference compound], under setting [1], the pest or weed control at 0.45 g/hl worked out at 0%. For the same compound, the pest or weed control at 1.8 g/hl under setting [2] was 20%. Besides, the pest or weed control at 7.5 g/hl under setting [3] came to 90%. Moreover, under setting [4], the pest or weed control at 30 g/hl was found to be 100%.
For `COC(=O)CC(NC(=O)[C@@H](NC(=O)OC(C)C)C(C)C)c1ccccc1` (stereo partly shown) [Reference 3, reference compound], under setting [1], the pest or weed control at 0.45 g/hl was 10%. Further, the pest or weed control at 1.8 g/hl under setting [2] stood at 55%. Further, the pest or weed control at 7.5 g/hl under setting [3] was 91%. Further, the pest or weed control at 30 g/hl under setting [4] amounted to 100%.
For `CCc1ccc(C(CC(=O)OC)NC(=O)[C@@H](NC(=O)Oc2ccccc2)C(C)C)cc1` (stereo partly shown) [Compound 5, methyl RS-[3-(N-phenoxycarbonyl-S-valinyl)amino]-3-(4-ethylphenyl)propanoate], the pest or weed control at 0.45 g/hl turned out to be 70%, the pest or weed control at 1.8 g/hl stood at 90%, the pest or weed control at 7.5 g/hl came to 100% and the pest or weed control at 30 g/hl was 100%.
For `COC(=O)CC(NC(=O)[C@@H](NC(=O)OC(C)C)C(C)C)c1ccc(C#N)cc1` (stereo partly shown) [Compound 7, methyl RS-[3-(N-isopropoxycarbonyl-S-valinyl)amino]-3-(4-cyanophenyl)propanoate], the pest or weed control at 0.45 g/hl under setting [1] was 67%. In addition, under setting [2], the pest or weed control at 1.8 g/hl was 90%. For the same compound, the pest or weed control at 30 g/hl under setting [4] came to 100%.
